Our source for the IC50 values is US20230159453A1 (COCRYSTAL PHARMA, INC., priority 2020, published 2023).

Each structure is given as a SMILES string.

One may read the IC50 as the midpoint of a concentration-inhibition curve.

For this assay, the target named is SARS2 protease (Severe acute respiratory syndrome coronavirus 2, UniProt P0DTD1). As to the kind of experiment: SARS-CoV-2 protease inhibition assay (SARS2 FRET protease assay). The format is biochemical. The note with it: SARS-CoV-2 protease 25 nM, FRET, peptide substrate 1.3 μM, 30 minutes at 30° C., compounds 20 μM to 1.0 nM; read-out: IC50.
As for `CC(C)C[C@H](NC(=O)O[C@@H](c1cccc(F)c1)C(C)(C)c1cccc(Cl)c1)C(=O)N[C@@H](C[C@@H]1CCNC1=O)C(=O)C(=O)NC1CC1` [Compound C285], the IC50 is 0.08 µM.
In the case of `CC(C)C[C@H](NC(=O)OC(c1cccc(Cl)c1)C(C)(C)c1cccc(Cl)c1)C(=O)N[C@@H](C[C@@H]1CCNC1=O)C(=O)C(=O)NC1CC1` (stereo partly drawn) [Compound C286] it was 0.07 µM; in that of `CCN1CCN(C(=O)C(=O)[C@H](C[C@@H]2CCNC2=O)NC(=O)[C@H](CC(C)C)NC(=O)OC(c2ccccc2)C(C)(C)c2cccc(Cl)c2)CC1` (stereo partly drawn) [Compound C287], more than 20 µM.
As for `CC1(C)CC(CC(NC(=O)[C@H](CC2CCCCC2)NC(=O)OC(c2cccc(Cl)c2)C(C)(C)c2cccc(Cl)c2)C(=O)C(N)=O)C(=O)N1` (stereo partly drawn) [Compound C288], the IC50 came out at 2.23 µM.
As for `CCCCC[C@H](NC(=O)OC(c1ccccc1)C(C)(C)c1cccc(Cl)c1)C(=O)N[C@@H](C[C@@H]1CCNC1=O)C(=O)C(=O)NC1CC1` (stereo partly drawn) [Compound C289], the IC50 came out at 0.37 µM.
With `O=C(N[C@@H](CC1CCCCC1)C(=O)NC(CC1CC2(CCC2)NC1=O)C(=O)C(=O)NC1CC1)OCc1cccc(Cl)c1` (stereo partly drawn) [Compound C290, 3-Chlorobenzyl ((2S)-3-cyclohexyl-1-((4-(cyclopropylamino)-3,4-dioxo-1-(6-oxo-5-azaspiro[3.4]octan-7-yl)butan-2-yl)amino)-1-oxopropan-2-yl)carbamate] the figure was 0.508 µM.
